From PMC8920929 (The Journal of Biological Chemistry, 2022)
Positions count from the first letter of the chain named.

Experiments:
[1] = molecular target: T1, TRPV3-D512A (Homo sapiens, UniProt Q8NET8, D512A); test: Whole-cell and single-channel recordings of the TRPV3-D512A mutant; format: cell-based
T1 sequence (Q8NET8 1-790 D512A): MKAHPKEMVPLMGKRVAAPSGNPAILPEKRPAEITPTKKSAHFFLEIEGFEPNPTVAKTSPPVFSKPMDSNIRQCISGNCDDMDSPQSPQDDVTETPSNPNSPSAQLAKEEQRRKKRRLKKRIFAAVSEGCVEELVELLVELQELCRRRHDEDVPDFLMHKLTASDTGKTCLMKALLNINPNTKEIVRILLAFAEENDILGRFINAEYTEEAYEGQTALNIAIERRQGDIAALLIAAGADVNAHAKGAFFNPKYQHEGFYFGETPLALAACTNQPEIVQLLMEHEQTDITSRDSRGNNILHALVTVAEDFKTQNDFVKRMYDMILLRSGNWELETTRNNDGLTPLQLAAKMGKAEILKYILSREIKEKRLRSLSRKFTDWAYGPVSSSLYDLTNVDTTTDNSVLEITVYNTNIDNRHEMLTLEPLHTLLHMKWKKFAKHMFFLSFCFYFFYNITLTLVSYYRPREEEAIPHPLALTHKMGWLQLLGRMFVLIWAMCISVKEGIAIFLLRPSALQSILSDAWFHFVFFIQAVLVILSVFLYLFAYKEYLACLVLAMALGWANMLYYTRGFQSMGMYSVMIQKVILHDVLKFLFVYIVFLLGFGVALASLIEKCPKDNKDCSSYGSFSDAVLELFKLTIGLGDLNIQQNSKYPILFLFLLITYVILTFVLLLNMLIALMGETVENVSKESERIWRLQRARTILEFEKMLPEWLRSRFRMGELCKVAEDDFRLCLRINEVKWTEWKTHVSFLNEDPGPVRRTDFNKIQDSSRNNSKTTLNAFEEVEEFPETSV

[2] = molecular target: T2, TRPV3-R509A (Homo sapiens, UniProt Q8NET8, R509A); test: Whole-cell and single-channel recordings of the TRPV3-R509A mutant; format: cell-based
T2 sequence (Q8NET8 1-790 R509A): T1 sequence (Q8NET8 1-790 D512A) with R509A, A512D

[3] = system: mice; settings: mice, but not TRPV3-KO mice; ref [33], [34]; cited from earlier work
[4] = system: TRPV3; settings: read-out: EC50, activation of TRPV3; ref [23], [30]; cited from earlier work
[5] = molecular target: T3, TRPV3-L508F (Homo sapiens, UniProt Q8NET8, L508F); test: Whole-cell and single-channel recordings of the TRPV3-L508F mutant; format: cell-based; settings: carvacrol 0.3-3.0 mM or 50 μM 2-APB
T3 sequence (Q8NET8 1-790 L508F): T1 sequence (Q8NET8 1-790 D512A) with L508F, A512D

- EC50 [1]: 3210 ± 480 µM
- right shift of channel activation versus WT TRPV3 ([1]; D512A versus WT): over 10 fold
- sensitivity of TRPV3 D512A mutant channel ([1]; carvacrol 0.3-3.0 mM): decreased the sensitivity
- EC50 [2]: 2930 ± 110 µM
- right shift of channel activation versus WT TRPV3 ([2]; R509A versus WT): over 10 fold
- sensitivity of TRPV3 R509A mutant channel ([2]; macroscopic and single-channel current levels): decreased the channel sensitivity
- activation of TRPV3 L508F mutant channel [5]: ablated TRPV3 activation
Compound: Cc1ccc(C(C)C)cc1O [carvacrol, 5-Isopropyl-2-methylphenol]
- pruritus on pharmacological activation of TRPV3 [3]: induces pruritus
- EC50 [4]: 497 ± 70 µM
